Patent US4816490A, “Novel therapeutic use of a derivative of indane dione and the pharmaceutical compositions intended for this use” (priority 1987, dated 1989)

Legend:
[1] = system: atheroma / hyperlipidaemia in Wistar rats on atheromatogenous regimen; test: Overall hypolipaemiant and anti-atheromatous classification (summarized scores); type: in vivo, rat; settings: 100 mg/kg
From the text: (§1) The method utilized for the test was that, slightly altered of Aubert D. Feraud J. C., Lacaze B., Pepino., Ponak E. et Podesta M. as described in Atherosclerosis, Vol. 20 (1974), p. 263-280 (Experimental Atherogenesis in the Wistar Rat).
(§2) Female rats of Wistar strain, free of specific pathogenic germs (EOPS) stemming from the breeding EVIC-CEBA
(§3) Diet: standard tablets UAE AO 3 enriched in cholesterol (0.5%) and in cholic acid (0.5).
(§4) Diet of the animals: the animals were given the atheromatogenous regimen then while maintaining the same regimen, they were given for 4 days 250,000 IU/kg of vitamin D2 dissolved in olive oil (Sterogyl 15H). The compounds to be tested were given thereafter for 4 weeks immediately after the termination of the atheromatogenous regimen.

[2] = Anti-lipaemiant activity (general statement); type: in vivo; settings: read-out: Dose from which a clear anti-lipaemiant activity is shown
[3] = Anti-inflammatory / analgesic activity; type: in vivo; settings: doses lower than previously disclosed
Method: The said 2-[(3,4-dimethoxy-benzoyl)-methyl]-2-hydroxy-1,3-dioxo-Indane has been used in the French patent at a dose of 250 mg/kg to induce an anti-inflammatory threshold effect. Consequently, the dosology disclosed in the French patent for the use in human therapy shall range from 400 to 1200 mg daily.

[4] = system: hyperlipidaemia induced by TRITON WR 1339; test: Hyperlipidaemia induced by TRITON WR 1339 in the Wistar rat; type: in vivo; settings: for Dose dependence of hypolipaemiant activity: 250 and 500 mg/kg
Method: Feeding by standard Regimen UAR A04
Drinking water ad libitum
6 animals per dose in a cage in MAKROLON of 60×40 cm filled with shavings of wood.
10 mn after: administration of the test compound
6 hours after: 1st sampling of the blood at the retro-orbital sinus
Total cholesterol by the colorimetric method of RICHMOND
Cholesterol in HDL by the colorimetric method of RICHMOND after precipitation by CONCANAVALIN A
Cholesterol in LDL by the colorimetric method of RICHMOND after precipitation by CONCANAVALIN A
Total lipids by the Zollner's sulphophosphovanillic method
Triglycerids by the BUCOLO's enzymatic method.

[5] = system: male and female mice of Swiss strain; test: Acute toxicity after single oral administration; type: in vivo; settings: for Deaths / toxic symptoms: single dose 10 g/kg
From the text: Male and female mice of Swiss strain weighing from 22 to 25 g of body weight were free of pathogen specific organisms (EOPS), stemming from breeding CERJ (53860 LE GENEST (France) and acclimated for at least 8 days in the animalry of the firm.
Except where stipulated to the contrary, in the tables giving the results, 10 animals of the same sex for each dose were housed in cages of MAKROLON (Safi) of 40 cm by 25 cm filled with shaving of wood. Standard feeding for rats and mice, tablets UAR and tap water ad libitum.
The compounds were administered without previous fasting either orally (gastric tubing using a metallic oesophageous sonde) at a rate of 0.5 ml or 1 ml per 20 g of body weight of an aqueous suspension of the test compound in a 3% solution of arabic gum, or intraperitoneally at a rate of 0.5 ml or 1 ml per 20 g of body weight of the test compound suspended in an isotonic saline solution containing 3% of arabic gum.
For 6 days after the single administration and then every day for 15 days.
When necessary, the mean lethal doses (LD 50) were calculated by the method of Behrens and Karber (BK) and Miller and Tainter (MT). The latter allowing to supply with, for the threshold of probability P=0.05 a limit of confidence for the LD 50. Further calculated were the LDo i.e. DMT=maximal doses always tolerated and the LD100 i.e. DMM=minimal doses always lethal.
The compound was administered in a single dose to batches of 10 male or female mice weighing […] at a rate of 1 ml per 20 g of body weight.

[6] = system: female rats of Wistar strain; test: Tolerance, mortality and body weight in the rat atheroma study; settings: 100 mg/kg
From the text: as §2, §4
The behavior and the changes in weight of the animals were surveyed every day as well as by weekly weighing.

[7] = system: atheromatous deposits of the aorta, Wistar rats; test: Macroscopic examination of aorta atheroma in rats on atheromatogenous diet; type: in vivo, rat
From the text: as §1, §3
After the studies, all the animals were sacrificed by subtotal puncture of the blood in the abdominal aorta after anesthesia by intravenous sodium Pentobarbital. The hearts, livers, aortas on which the score of atheroma was determined were taken. For this purpose, the aortas were longitudinally cut, then spread to allow a whole insight of the endothelial coating from the aortic valves until the branching of the coeliac stem (lower portion of the thoracic aorta).
Aorta was from an anatomic point of view divided into two parts:
Zone 1: aortic valves-first intercostal arters
Zone 2: first intercostal arters and branching of the coeliac stem
The intensity of the atheromatous deposits was determined according to the following scores:
Score 1: Discrete (<1 mm) and few deposit
Score 2: Numerous and discrete deposits
Score 3: Numerous and marked deposits (<1 mm)
Score 4: Very marked deposits or very numerous deposits but letting some uninfiltrated areas
Score 5: Deposits on the whole epithelium
Two parameters were considered:
the intensity of the observed damages determined according to the previously-given scores.

COc1ccc(C(=O)CC2(O)C(=O)c3ccccc3C2=O)cc1OC [Compound of the invention, 2-[(3,4-dimethoxy-benzoyl)-methyl]-2-hydroxy-1,3-dioxo Indane]
Classification of the anti-atheromatous action [1]: Compound of the invention>Fenofibrate>Clofibrate | Hypolipaemiant and anti-atheromatous activity [1]: marked hypolipaemiant and anti-atheromatous activity, very close to Clofibrate (100 mg/kg) and far better than those of Fenclofibrate (100 mg/kg) | minimal effective dose [2]: ≥ 100 mg/kg | Anti-inflammatory or analgesic properties at the antilipaemiant doses [3]: does not show anti-inflammatory or analgesic properties | Dose dependence of hypolipaemiant activity ([4]; 6 hours after TRITON WR 1339): directly proportional to the doses | Dose dependence of hypolipaemiant activity ([4]; 24 hours after TRITON WR 1339): inversely proportional to the dose | Total Score vs 250 mg/kg Procetofene ([4]; 6 hours after, 125 mg/kg oral): 2.75 | Total cholesterol score vs 250 mg/kg Procetofene ([4]; 6 hours after, 125 mg/kg oral): 2.44 | Triglycerids score vs 250 mg/kg Procetofene ([4]; 6 hours after, 125 mg/kg oral): 0.31 | Cholesterol HDL/LDL score vs 250 mg/kg Procetofene ([4]; 6 hours after, 250 mg/kg oral): 0.87 | Total Score vs 250 mg/kg Procetofene ([4]; 6 hours after, 250 mg/kg oral): 3.74 | Total cholesterol score vs 250 mg/kg Procetofene ([4]; 6 hours after, 250 mg/kg oral): 1.15 | Total lipids score vs 250 mg/kg Procetofene ([4]; 6 hours after, 250 mg/kg oral): 0.92 | Triglycerids score vs 250 mg/kg Procetofene ([4]; 6 hours after, 250 mg/kg oral): 0.80 | Cholesterol HDL/LDL score vs 250 mg/kg Procetofene ([4]; 6 hours after, 500 mg/kg oral): 2.00 | Total Score vs 250 mg/kg Procetofene ([4]; 6 hours after, 500 mg/kg oral): 4.95 | Total cholesterol score vs 250 mg/kg Procetofene ([4]; 6 hours after, 500 mg/kg oral): 0.35 | Total lipids score vs 250 mg/kg Procetofene ([4]; 6 hours after, 500 mg/kg oral): 1.00 | Triglycerids score vs 250 mg/kg Procetofene ([4]; 6 hours after, 500 mg/kg oral): 1.60 | Total Score vs 250 mg/kg Procetofene ([4]; 6 hours after, 750 mg/kg oral): 1.72 | Total cholesterol score vs 250 mg/kg Procetofene ([4]; 6 hours after, 750 mg/kg oral): 0.78 | Total lipids score vs 250 mg/kg Procetofene ([4]; 6 hours after, 750 mg/kg oral): 0.14 | Triglycerids score vs 250 mg/kg Procetofene ([4]; 6 hours after, 750 mg/kg oral): 0.80 | Cholesterol HDL/LDL score vs 250 mg/kg Procetofene ([4]; 24 hours after, 125 mg/kg oral): 1.40 | Total Score vs 250 mg/kg Procetofene ([4]; 24 hours after, 125 mg/kg oral): 1.94 | Total cholesterol score vs 250 mg/kg Procetofene ([4]; 24 hours after, 125 mg/kg oral): 0.28 | Triglycerids score vs 250 mg/kg Procetofene ([4]; 24 hours after, 125 mg/kg oral): 0.26 | Cholesterol HDL/LDL score vs 250 mg/kg Procetofene ([4]; 24 hours after, 250 mg/kg oral): 1.10 | Total Score vs 250 mg/kg Procetofene ([4]; 24 hours after, 250 mg/kg oral): 4.64 | Total cholesterol score vs 250 mg/kg Procetofene ([4]; 24 hours after, 250 mg/kg oral): 1.13 | Total lipids score vs 250 mg/kg Procetofene ([4]; 24 hours after, 250 mg/kg oral): 1.56 | Triglycerids score vs 250 mg/kg Procetofene ([4]; 24 hours after, 250 mg/kg oral): 0.85 | Cholesterol HDL/LDL score vs 250 mg/kg Procetofene ([4]; 24 hours after, 500 mg/kg oral): 0.80 | Total Score vs 250 mg/kg Procetofene ([4]; 24 hours after, 500 mg/kg oral): 3.66 | Total cholesterol score vs 250 mg/kg Procetofene ([4]; 24 hours after, 500 mg/kg oral): 0.75 | Total lipids score vs 250 mg/kg Procetofene ([4]; 24 hours after, 500 mg/kg oral): 1.62 | Triglycerids score vs 250 mg/kg Procetofene ([4]; 24 hours after, 500 mg/kg oral): 0.49 | Cholesterol HDL/LDL score vs 250 mg/kg Procetofene ([4]; 24 hours after, 750 mg/kg oral): 0.40 | Total Score vs 250 mg/kg Procetofene ([4]; 24 hours after, 750 mg/kg oral): 1.73 | Total cholesterol score vs 250 mg/kg Procetofene ([4]; 24 hours after, 750 mg/kg oral): 0.61 | Triglycerids score vs 250 mg/kg Procetofene ([4]; 24 hours after, 750 mg/kg oral): 0.72 | minimal effective dose ([4]; Rattus norvegicus, TRITON WR 1339, rats, oral, read-out: Oral dose from which hyperlipaemia was antagonized or decreased): ≥ 125 mg/kg | Antihyperlipaemiant activity, compound vs Procetofene ([4]; same doses (250 and 500 mg/kg)): antihyperlipaemiant activity about equal | Toxicity ([5]; general statement): very low toxicity | LD100 ([5]; oral, male or female mice): > 10000 mg/kg | LDo ([5]; oral, male or female mice): 10000 mg/kg | Deaths / toxic symptoms ([5]; oral, male or female mice): no toxicity even at a dose of 10 g/kg | Deaths / toxic symptoms ([5]; oral, male or female mice, listed as test compound): no deaths nor toxic symptoms appeared | Toxicity in comparison with Clofibrate ([5]; single administration, orally or parenterally): less toxic than Clofibrate | Mortality compared with batch No. 2 (2/15) ([6]; 4 weeks, atheromatogenous regimen): did not increase it | Tolerance compared with Clofibrate ([6]; rat, in vivo): better tolerated | Macroscopical examination total score ([7]; 100 mg/kg): 2.57 | Damaged animals, % of decrease in comparison with Controls-Diet ([7]; 100 mg/kg, macroscopical): -30.77% | Damaged animals, percentage ([7]; 100 mg/kg, macroscopical): 69.23% | Damaged animals, score in relation to Clofibrate ([7]; 100 mg/kg, macroscopical): 1.69 | Intensity of the damages, % of decrease in comparison with Controls-Diet ([7]; 100 mg/kg, macroscopical): -22.68% | Intensity of the damages, score in relation to Clofibrate ([7]; 100 mg/kg, macroscopical): 0.88 | Frequency of macroscopic damages ([7]; cholesterol-rich diet): a lower frequency of macroscopic damages | Intensity of observed damages ([7]; cholesterol-rich diet): a lower intensity of the observed damages | Activity on macroscopic damages vs Clofibrate ([7]; same doses, cholesterol-rich diet): more active when evaluating the macroscopic damages
